Measurements taken from US20040067932A1 (priority 2002, published 2004).
In brackets after ≈: the same amount, converted by molar mass. Entries after “also recorded” stand apart in the source; their conditions may differ. Where two headings read alike, the source gives them in different places.

What was measured:
[1] = target: T1, P-gp drug efflux activity in A375 cells (Homo sapiens, UniProt P08183); test: Rhodamine 123 efflux assay, A375 cells; type: cell-based
T1 construct: endogenous in cells; host or cells: A375 human melanoma cells (ATCC)
T1 sequence (P08183 whole entry): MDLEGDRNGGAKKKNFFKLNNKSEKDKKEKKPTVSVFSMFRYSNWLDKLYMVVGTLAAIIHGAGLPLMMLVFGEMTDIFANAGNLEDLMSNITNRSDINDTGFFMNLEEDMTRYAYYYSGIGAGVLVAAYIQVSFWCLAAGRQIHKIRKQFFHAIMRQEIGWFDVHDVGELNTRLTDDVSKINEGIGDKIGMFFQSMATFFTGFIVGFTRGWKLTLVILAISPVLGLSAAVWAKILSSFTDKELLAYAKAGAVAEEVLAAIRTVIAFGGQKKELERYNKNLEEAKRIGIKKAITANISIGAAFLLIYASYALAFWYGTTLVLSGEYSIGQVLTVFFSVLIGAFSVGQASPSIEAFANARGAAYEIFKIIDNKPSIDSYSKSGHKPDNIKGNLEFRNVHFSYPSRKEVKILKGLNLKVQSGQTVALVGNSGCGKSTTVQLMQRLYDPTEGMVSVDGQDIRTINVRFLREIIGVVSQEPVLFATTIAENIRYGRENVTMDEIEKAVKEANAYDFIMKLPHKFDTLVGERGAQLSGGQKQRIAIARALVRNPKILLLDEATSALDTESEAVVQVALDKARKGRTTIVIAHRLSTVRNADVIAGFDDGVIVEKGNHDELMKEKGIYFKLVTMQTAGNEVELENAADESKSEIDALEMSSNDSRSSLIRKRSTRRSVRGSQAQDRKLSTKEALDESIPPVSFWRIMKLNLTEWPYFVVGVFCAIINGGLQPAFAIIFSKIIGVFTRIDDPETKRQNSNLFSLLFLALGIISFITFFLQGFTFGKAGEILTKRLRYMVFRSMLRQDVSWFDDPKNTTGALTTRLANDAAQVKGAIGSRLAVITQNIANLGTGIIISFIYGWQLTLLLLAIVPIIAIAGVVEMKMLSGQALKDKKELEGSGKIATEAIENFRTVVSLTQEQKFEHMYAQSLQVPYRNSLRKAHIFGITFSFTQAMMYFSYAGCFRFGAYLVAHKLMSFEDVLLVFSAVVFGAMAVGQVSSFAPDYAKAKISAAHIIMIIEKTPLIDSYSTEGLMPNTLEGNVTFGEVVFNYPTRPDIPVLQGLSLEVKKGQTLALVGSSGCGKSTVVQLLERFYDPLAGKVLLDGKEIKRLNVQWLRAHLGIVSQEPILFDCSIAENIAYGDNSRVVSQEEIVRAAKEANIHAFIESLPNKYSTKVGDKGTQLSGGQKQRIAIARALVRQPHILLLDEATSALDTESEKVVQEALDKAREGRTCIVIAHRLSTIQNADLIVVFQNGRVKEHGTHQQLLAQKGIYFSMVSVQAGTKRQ
Description: (§1) 5×10^5 cells from each subline were loaded with 50 ng/ml of rhodamine 123 for 30 minutes at 37° C. in medium. The cells were washed and resuspended in dye-staining agent free medium for 3 hours at 37° C. to allow rhodamine 123 efflux. The cells were then washed twice and the fluorescence of intracellular rhodamine 123 were analysed with Flow cytometer (residual fluorescence FRES). The fluorescence was compared with loaded cells maintained at 4° C. to prevent drug export (maximal fluorescence FMAX). […] Cells from each subline that were not being exposed to rhodamine 123 were used as negative controls.
(§2) Rhodamine 123 (Rh123) retention, a P-gp functional assay, was studied in all cell lines. This assay was performed by incubating cells with Rh123 and determining Rh123 accumulation by measuring its fluorescence. The maximum load of Rh123 (FMAX) was quantified at the end of treatment harvesting the cells and storing them at 4° C. to prevent any active Rh123 efflux . The P-gp drug efflux was allowed incubating Rh123-loaded cells in fresh new medium Rh123-free for 3 hours at 37° C. After this incubation, residual fluorescence (FRES) was measured and compared to FMAX.

[2] = test system: A375 cells; test: Metabolic (MEK/ERK/p38MAPK) inhibitor signalling study by flow cytometry, A375; type: cell-based, human; conditions: U0126 30 μM; for prevention of MRE3008F20-induced accumulation in G2/M: MRE3008F20 10 μM
[3] = test system: A375 cells; test: Flow cytometry (PI) G2/M accumulation and sub-G1 apoptosis, A375; type: cell-based, human; conditions: for EC50: Homo sapiens
Description: (§3) A375 and NCTC2544 adherent cells were trypsinized, mixed with floating cells, washed with PBS and permeabilised in 70% (vol/vol) ethanol/PBS solution at 4° C. for at least 24 hours. Jurkat, HeL023 and PBMC cells were centrifuged for 10 minutes at 1000×g. The cell pellet was then resuspended and permeabilised in 70% (vol/vol) ethanol/PBS solution at 4° C. for at least 24 hours. The cells were washed with PBS and the DNA was stained with a PBS solution, containing 20 μg/ml of propidium iodide and 100 μg/ml of RNAse, at room temperature for 30 minutes. Cells were analysed by FACScan (Becton-Dickinson) and the content of DNA was evaluated by the Cell-LISYS program (Becton-Dickinson). Cell distribution among cell cycle phases and apoptotic cells was evaluated as previously described (Secchiero et al., 2001). Briefly, the cell cycle distribution is shown as the percentage of cells containing 2n (G1 phase), 4n (G2 and M phases), 4n>x>2n. DNA amount (S phase) judged by propidium iodide staining. The apoptotic population is the percentage of cells with DNA content lower than 2n.
Cell proliferation and apoptosis are quantified by flow cytometer analysis after propidium-iodide (PI) DNA staining.

[4] = test system: HeL023 cells; test: Flow cytometry (PI) G2/M accumulation and sub-G1 apoptosis, HeL023; type: cell-based, human
Description: as §3
(§4) To verify the role of A3 receptor antagonists on paclitaxel and vindesine mediated alteration of cell proliferation and apoptosis, testing was performed with additional cell lines. […] Experimental conditions are similar to those for the A375 cell testing.

[5] = test system: Jurkat cells; test: Flow cytometry (PI) G2/M accumulation and sub-G1 apoptosis, Jurkat; type: cell-based, human
Description: as §3, §4

[6] = test system: NCTC2544 cells; test: Flow cytometry (PI) G2/M accumulation and sub-G1 apoptosis, NCTC2544; type: cell-based, human; conditions: NCTC 2544
Description: as §3, §4

[7] = test system: PBMC blasts; test: Flow cytometry (PI) G2/M accumulation, PBMC blasts; type: cell-based; conditions: Homo sapiens, DMSO (no antagonist), read-out: vindesine EC50 (G2/M accumulation)
Description: Cells are passaged two or three times weekly at a ratio between 1:5 and 1:10. Lymphocytes were isolated from buffy coats kindly provided by the Blood Bank of the University Hospital of Ferrara. Blood donated by healthy volunteers, after informed consent for research was obtained. Lymphocytes were isolated by density gradient centrifugation (Ficoll/Histopaque 1.077 g/ml). The cells are stimulated with purified phytohemoagglutinin (1 μg/ml) and expanded in RPMI medium added of interleukin 2 (20 Units/ml) and 10% fetal calf serum.
Jurkat, HeL023 and PBMC cells were centrifuged for 10 minutes at 1000×g. The cell pellet was then resuspended and permeabilised in 70% (vol/vol) ethanol/PBS solution at 4° C. for at least 24 hours. The cells were washed with PBS and the DNA was stained with a PBS solution, containing 20 μg/ml of propidium iodide and 100 μg/ml of RNAse, at room temperature for 30 minutes. Cells were analysed by FACScan (Becton-Dickinson) and the content of DNA was evaluated by the Cell-LISYS program (Becton-Dickinson). Cell distribution among cell cycle phases and apoptotic cells was evaluated as previously described (Secchiero et al., 2001). Briefly, the cell cycle distribution is shown as the percentage of cells containing 2n (G1 phase), 4n (G2 and M phases), 4n>x>2n. DNA amount (S phase) judged by propidium iodide staining. […]

[8] = target: T2, rA1 adenosine receptor (Rattus norvegicus, UniProt P25099); test: Binding affinity at rA1 adenosine receptor
T2 sequence (P25099 1-326): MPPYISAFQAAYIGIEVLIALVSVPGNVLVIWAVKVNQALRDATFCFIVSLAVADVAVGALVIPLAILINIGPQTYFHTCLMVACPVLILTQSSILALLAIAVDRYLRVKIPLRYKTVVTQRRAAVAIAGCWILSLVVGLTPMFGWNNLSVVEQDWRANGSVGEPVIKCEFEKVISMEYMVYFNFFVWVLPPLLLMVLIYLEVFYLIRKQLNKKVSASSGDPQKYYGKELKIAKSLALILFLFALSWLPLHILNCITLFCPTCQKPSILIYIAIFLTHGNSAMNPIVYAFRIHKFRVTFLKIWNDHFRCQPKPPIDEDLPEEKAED

[9] = test system: human melanoma A375 cell line; test: MTT growth inhibitory assay, A375; type: cell-based; conditions: for IC50: A-375, Human Melanoma A375, read-out: IC50 growth inhibition, agent used separately
Description: (§5) One of the growth inhibitory assays is the MTT assay. Cells (1000-1500 cells/well) are seeded in a 96-well micro culture plate in a total volume of 100 μl/well. After overnight incubation in a humidified incubator at 37° C. with 5% CO2-95% air, chemotherapeutic drug solutions diluted with culture medium at various concentrations are added in the amount of 100 μl to each well. The plates are placed in a humidified incubator at 37° C. with 5% CO2-95% air for 7-10 days. The plates are then centrifuged briefly and 100 μl of the growth medium is removed. Cell cultures are incubated with 50 μl of MTT [3-(4,5-dimethylthiazol-2-yl)-2,5-diphenyl-tetrazolium bromide] reagent (1 mg/ml in Dulbecco's phosphate-buffered saline) for 4 hr at 37° C. The resultant purple formazan precipitate is solubilized with 200 μl of 0.04 N HCl in isopropanol. Absorbance is measured at a wavelength of 595 nm and at a reference wavelength of 655 nm using a Bio-Rad Model 3550 Microplate Reader. Preferably, all tests are run in duplicate for each dose level.
(§6) The EZED50 computer program estimates the concentration of agent that inhibits cell growth by 50% as compared to the control cells. This is termed the IC50 and is determined by curve fitting test data using the following four logistic equation. [formula]
(§7) Inhibitory assay testing is also used to determine enhanced therapeutic effects from combining A3 receptor antagonists with other tumor inhibiting agents. The inhibitory cell growth assays are run with and without selected concentrations of A3 receptor antagonists. An enhanced therapeutic effect is present when the IC50 of the tumor inhibiting agent is lower with the A3 receptor antagonist.
(§8) Quantitatively, the enhancement factor (EF) is calculated by dividing the IC50 value of the tumor inhibiting agent for a tumor cell line by the IC50 value of the agent with A3 receptor antagonist for the same cell line: [formula]

[10] = test system: human colon carcinoma HT29 cell line; test: MTT growth inhibitory assay, HT29; type: cell-based; conditions: for IC50: HT-29
Description: as §5, §6, §7, §8

[11] = test system: human pancreatic cancer Panc-1; test: MTT growth inhibitory assay, Panc-1; type: cell-based
Description: as §5, §6, §7, §8

[12] = test system: human lung carcinoma SKMES; test: MTT growth inhibitory assay, SKMES; type: cell-based
Description: as §5, §6, §7, §8

[13] = test system: A375 melanoma cells; test: Colony formation assay of A375 cells; type: cell-based, human
Description: FIG. 2 illustrates colony formation assay of A375 cells. Cells were treated with different drugs and colonies were counted after 7 days. The values represent the mean ±SEM of four independent experiments. D=DMSO (control); T=paclitaxel, 0.75 ng/ml; M=MRE 3008F20, 10 μM; C=CI-IB-MECA, 10 μM; TM=paclitaxel plus MRE 3008F20; TC=paclitaxel plus CI-IB-MECA treated cells. *P<0.01 TM versus T. Analysis was by ANOVA followed by Dunnett's test.;
Control plates received the same volume of DMSO alone. After 7 days of growth at 37° C. in humidified atmosphere containing 5% CO2, the cells were fixed with absolute methanol for 5′ and stained with 1/10 Giemsa/phosphate-buffered saline (PBS) staining solution for 10 minutes. Staining solution was removed and colonies of greater than 30 cells were scored as survivors. For each treatment, six individual wells were scored.
Colony formation assay experiments were performed on A375 melanoma cells treated with increasing concentration of paclitaxel (0.25-75 ng/ml). A3 stimulation is achieved with the selective agonist CI-IB-MECA while A3 blockade is obtained with the selective antagonist MRE 3008F20. […] (FIG. 2)

[14] = target: T3, P-gp drug efflux activity in HeL023 cells (Homo sapiens, UniProt P08183); test: Rhodamine 123 efflux assay, HeL023 cells; type: cell-based; conditions: Rh123 efflux, concentrations of Table 11 (MRE3008F20 10 μM)
T3 construct: nearly all (100±1%) the cells expressing high level of functional P-gp; endogenous in cells; host or cells: HeL023 human erythroleukemia cells
T3 sequence (P08183 whole entry): as the sequence (P08183 whole entry) above
Description: as §1, §2

[15] = 100 mg/m^2; cited from earlier work
[16] = Homo sapiens, DMSO (no antagonist), read-out: vindesine EC50 (G2/M accumulation)
[17] = Human Colon Carcinoma HT29, read-out: IC50 growth inhibition, agent used separately
[18] = Human Pancreatic Cancer Panc-1, read-out: IC50 growth inhibition, agent used separately
[19] = Human Lung Carcinoma SKMES, read-out: IC50 growth inhibition, agent used separately

## N#CC(=C(/N)Sc1ccccc1N)/C(C#N)=C(\N)Sc1ccccc1N [U0126]
[1]; U0126 30 μM for 30 minutes, then MRE3008F20 10 μM
  effect on MRE 3008F20 blockade of P-gp (in words): failed to prevent MRE 3008F20 blockade of P-gp
[2]; PD98059 20 μM, SB203580 1 μM
  effect on G2/M accumulation rate of paclitaxel or vindesine alone (in words): did not alter
[2]; in presence of paclitaxel
  prevention of MRE3008F20-induced accumulation in G2/M: 23±5%
[2]; in presence of vindesine 1 nM
  prevention of MRE3008F20-induced accumulation in G2/M: 48±5%
[2]; paclitaxel 25 ng/ml, PD98059 20 μM, SB203580 1 μM
  reduction of apoptosis induced by paclitaxel: 73±10%

## CC[C@]1(O)C[C@@H]2CN(CCc3c([nH]c4ccccc34)[C@@](C(=O)OC)(c3cc4c(cc3OC)N(C)[C@H]3[C@@](O)(C(N)=O)[C@H](O)[C@]5(CC)C=CCN6CC[C@]43[C@@H]65)C2)C1 [vindesine]
[3]; A375, DMSO (no antagonist)
  vindesine ECMAX (sub-G1, maximal apoptosis): 3.54 ± 0.42 nM
[3]; A-375, 24 h, read-out: vindesine EC50 (G2/M accumulation)
  EC50: 1.9 ± 0.2 nM
[4]; DMSO (no antagonist)
  vindesine ECMAX (sub-G1): 33.11 ± 4.02 nM
[4]; [16]
  EC50: 25.8 ± 3.25 nM
[5]; [16]
  EC50: 0.93 ± 0.08 nM
[6]; [16]
  EC50: 0.89 ± 0.08 nM
[6]; DMSO (no antagonist)
  vindesine ECMAX (sub-G1): 2.50 ± 0.27 nM
[7]
  EC50: 1.1 ± 0.9 nM

## CCCn1cc2c(nc(NC(=O)Nc3ccc(OC)cc3)n3nc(-c4ccco4)nc23)n1 [MRE3008F20]
[8]
  Ki: > 10000 nM
[9]; A375, A3 antagonist 1 μg/ml
  Enhancement Factor for docetaxel: 63.3
  Enhancement Factor for paclitaxel: 7.1
[9]; A375, A3 antagonist 3 μg/ml
  Enhancement Factor for docetaxel: 6.9
  Enhancement Factor for paclitaxel: 6.4
[9]; A375, A3 antagonist 10 μg/ml
  Enhancement Factor for docetaxel: 5.3
[9]; A375, A3 antagonist 10 μg/ml, paclitaxel 0.0001-0.05 μg/ml
  Enhancement Factor for paclitaxel: 7.1
[9]; A375, A3 antagonist 1, 3 and 10 μg/ml
  enhancement factor for paclitaxel at all three concentrations: 6.4-7.1
[9]; Homo sapiens
  IC50: 91300 ± 1500 ng/mL (≈ 211000 nM)
[9]; Homo sapiens, A-375, A375, 10 μg/ml, read-out: growth inhibition in the presence of A3 antagonist alone
  inhibition at 10 µg/mL: 30 to 45%
[10]; HT29, A3 antagonist 1 μg/ml
  Enhancement Factor for docetaxel: 15.0
  Enhancement Factor for doxorubicin: 1.6
  Enhancement Factor for irinotecan HCl: 1.8
  Enhancement Factor for paclitaxel: 2.9
[10]; [17]
  IC50: 39400 ± 7700 ng/mL (≈ 91100 nM)
[11]; [18]
  IC50: 15800 ± 13500 ng/mL (≈ 36500 nM)
[11]; Panc-1, A3 antagonist 1 μg/ml
  Enhancement Factor for docetaxel: 1.8
  Enhancement Factor for paclitaxel: 1.9
[12]; [19]
  IC50: 19000 ± 1200 ng/mL (≈ 43900 nM)
[12]; SKMES, A3 antagonist 1 μg/ml
  Enhancement Factor for docetaxel: 3.6
  Enhancement Factor for irinotecan HCL: 2.1
  Enhancement Factor for paclitaxel: 4.1
  Enhancement Factor for vinblastine: 1.2
[13]; 10 μM alone, 7 days
  colony formation, % of DMSO control: 59%
[13]; MRE 3008F20 10 μM plus paclitaxel 0.75 ng/ml
  colony formation predicted by geometrical combination: 38%
[3]; A375, MRE3008F20 10 μM
  paclitaxel ECMAX with A3 antagonist: 3.04 ± 0.32 ng/mL
  vindesine ECMAX with A3 antagonist: 1.66 ± 0.20 nM
[3]; A-375, read-out: SEC50 (dose inducing 50% of the enhancing activity to vindesine)
  EC50: 550 ± 60 nM
[4]; MRE3008F20 10 μM
  paclitaxel ECMAX with A3 antagonist: 3.19 ± 0.30 ng/mL
  vindesine ECMAX with A3 antagonist: 1.05 ± 0.09 nM
[5]; MRE3008F20 10 μM
  paclitaxel ECMAX with A3 antagonist: 2.29 ± 0.31 ng/mL
[6]; MRE3008F20 10 μM
  paclitaxel ECMAX with A3 antagonist: 2.55 ± 0.24 ng/mL
  vindesine ECMAX with A3 antagonist: 1.34 ± 0.15 nM
[14]
  inhibition of P-gp activity (in words): near total P-gp inhibition; also recorded: strong inhibitors of P-gp activity
[1]; 10 μM, FRES comparable to FMAX
  blockade of P-gp mediated Rh123 transport (in words): completely blockade of P-gp mediated Rh123 transport

## CC(=O)O[C@@]12CO[C@@H]1C[C@H](O)[C@@]1(C)C(=O)[C@H](O)C3=C(C)[C@@H](OC(=O)[C@H](O)[C@@H](NC(=O)OC(C)(C)C)c4ccccc4)C[C@@](O)([C@@H](OC(=O)c4ccccc4)[C@H]21)C3(C)C [docetaxel, reference compound]
[9]; Homo sapiens
  IC50: 0.2 ± 0.07 ng/mL (≈ 0.248 nM)
[10]; [17]
  IC50: 0.24 ± 0.05 ng/mL (≈ 0.297 nM)
[10]; Homo sapiens, HT29, docetaxel 0.00001-0.005 μg/ml, alone, read-out: IC50 of docetaxel, A3 antagonist none
  IC50: 0.018 ng/mL (≈ 0.0223 nM)
[11]; Homo sapiens, Panc-1, docetaxel 0.00001-0.005 μg/ml, alone, read-out: IC50 of docetaxel, A3 antagonist none
  IC50: 0.68 ng/mL (≈ 0.842 nM)
[11]; [18]
  IC50: 0.37 ± 0.31 ng/mL (≈ 0.458 nM)
[12]; Homo sapiens, SKMES, docetaxel 0.00001-0.005 μg/ml, alone, read-out: IC50 of docetaxel, A3 antagonist none
  IC50: 0.47 ng/mL (≈ 0.582 nM)
[12]; [19]
  IC50: 0.84 ± 0.37 ng/mL (≈ 1.04 nM)
[15]
  acute hypersensitivity reaction, % of patients: 13%
  severe hypersensitivity reaction, % of patients: 1.2%
